Measurements from paper PMC8657848, “Developmental Toxicity and Biotransformation of Two Anti-Epileptics in Zebrafish Embryos and Early Larvae” (International Journal of Molecular Sciences, 2021).
Several values for one entry are separate records, joined by “and”; a condition that tells them apart may be missing. Equal values may be shown once.

Experiments:
zebrafish embryos = conditions: cited from earlier work; for Teratogenicity on zebrafish development: after 70 h of exposure (time point 72 hpf)
[1] = system: zebrafish embryos and larvae; assay: Morphological evaluation of zebrafish embryos/larvae exposed from 5¼ to 120 hpf; conditions: for Significant effect on embryo/larva development after exposure to the metabolite: 5¼–120 hpf; for Teratogenicity in zebrafish (conclusion from morphological and analytical assessment): exposure 5¼–120 hpf
Description: Each experiment was performed in two biological replicates (n = 2, 20 embryos/replicate) and consisted of a medium control group (EMS), solvent control group(s) (EMS + 0.5% DMSO and/or EMS + 1% DMSO) and four dose groups. […] Embryos were reared until they reached the desired developmental stage, under the same environmental conditions as the adults (28.5 °C ± 0.3 °C with a 14/10 h light/dark cycle) in the incubator (TIN-IN35, Phoenix instrument, Garbsen, Germany).
For the metabolites, E-CBZ (≥98% purity, CAS number: 36507-30-9, Supelco, Merck, Darmstadt, Germany) and HPPH (98% purity, CAS number: 2784-27-2, Sigma-Aldrich®, Merck, Darmstadt, Germany), we only selected one high concentration, 250 µM (see Supplementary Table S1). […] A higher percentage of DMSO was used for E-CBZ for the optimum dissolution of E-CBZ in EMS. Immediately after the selection (see Section 4.1), twenty embryos were randomly distributed in each control and test group. Embryos were exposed at the latest at 5 hpf in a final volume of 300 µL medium at a density of a fish per well.
For each biological replicate (n = 2), zebrafish embryos were morphologically investigated at 5¼, 10, 24, 48, 72, 96 and 120 hpf (Figure 9) using an Olympus CKX41 microscope with an Olympus U-TV0.5XC-3 lighting and an Olympys 4x/0.16 Uplan APO microscope objective (Shinjuku, Tokyo, Japon) to follow the developmental stages described by Kimmel et al.. The 5¼- and 10-hpf time points served as control steps to identify unfertilized or coagulated eggs that were included unwittingly to the experiment and referenced as coagulated in the 24-hpf morphological sheet (see Supplementary Figure S3). A series of morphological parameters were explored, adapted from Nagel et al., depending on the different time points of interest and described previously by our group (see Supplementary Figure S3). All parameters were scored 0 if normal and 1 if malformed. This binary scale was used to facilitate the scoring and no gradation of the severity of the endpoints was evaluated in this study.

[2] = Quantification of compound in stock and culture medium relative to nominal concentration (LC-MS); type: physicochemical; conditions: 96 hpf
Description: The control and test mediums were also kept in the same incubator until the last time point of the experiment. The embryo media were renewed every 48 h, to avoid medium acidification and oxygen deprivation. At each medium change and at the last time point of the experiment (Figure 9), the media exposed to the embryos were pooled and kept at −80 °C for further use (n = 3). Moreover, samples from the stock solutions kept at 28.5 °C ± 0.3 °C were also taken at 0 and 120 hpf (n = 3), whereas samples were only taken at 96 hpf for the metabolites medium (E-CBZ and HPPH).

zebrafish embryos/larvae = assay: Quantification of parent compounds and metabolites in whole zebrafish embryos/larvae homogenate extracts; conditions: for Uptake by embryos and larvae (quantified in homogenate extracts): 24 and 120 hpf, CBZ, PHE 31.25, 85, 250 µM, E-CBZ, HPPH 250 µM
Description: In three biological replicates (n = 3; 20 embryos/replicate) and at the two desired developmental stages (24 and 120 hpf), embryos/larvae of each test and control group were pooled and then rinsed three times with cold EMS (4 °C) on a mesh (Cell strainer […] Nylon, Steril Falcon®, Durham, NC, USA). Embryos collected at 24 hpf were not dechorionated, as the focus of this study was on the potential formation of the mammalian active metabolites. Moreover, it was argued that the chorion was more permeable than previously believed and that dechorionation could increase background malformations during gross morphology investigation. Embryos/larvae were then transferred and kept for five min in cryotubes (Cryo.S™, Greiner Bio-One, Frickenhausen, Germany) filled with 500 µL of cold embryo medium (4 °C), before being snap-frozen in liquid nitrogen and kept, for later use, at −80 °C (Figure 9).
The extraction preparation was based on Brox et al. for two developmental stages, 24 and 120 hpf, and performed in triplicate for each test group (n = 3, 20 embryos/replicate) (Figure 9). On the day of the extraction procedure, frozen samples (see Section 4.2.1) were thawed on ice and EMS was removed. A volume of 500 µL of acetonitrile (ACN) (purity ≥99.9%, Merck, Darmstadt, Germany) containing the internal standard lamotrigine, LAMO, (≥98% purity, CAS number: 84057-84-1, Sigma-Aldrich, Merck, Darmstadt, Germany) was then added to each tube to reach a final concentration of 0.39 µM, after dilution in HPLC-grade water. Samples were vortexed (VM3, CAT, Germany) for 5 min at a 2000 rotation/min speed, before being placed on ice and ultrasonicated with an Ultrasonic Processor VCX 130 (Sonics, Newtown, CT, USA) fifteen times for 30 s at an 80% amplitude with pause intervals of 30 s. Supernatants of the samples were then centrifuged (Centrifuge 5424 R, Eppendorf, Hamburg, Germany) twice at 4 °C for 15 min at 15,000× g, snap-frozen and kept for later use at −80 °C, whereas the pellets were discarded.
First, both sample types were processed to reach a final percentage of 30% ACN and a concentration of 0.39 µM of the IS, LAMO. […] Calibration curves and quality controls were prepared in their corresponding reaction mixtures to minimize matrix or extraction process effects. The analytical investigations were performed on an Acquity Ultra Performance Liquid Chromatography (UPLC) with sample manager, binary solvent manager, diode array detector and a triple-quadrupole detector (ACQUITY UPLC-triple quadrupole detector, Waters, Milford, CT, USA) equipped with the Masslynx software (version 4.1). […] Separation was accomplished in 6 min, using a flow rate of 0.5 mL/min. The solvent gradient program was set as follows: 85% A/15% B (0–0.5 min); 85–0% A/15–100% B (0.5–3.3 min); 0% A/100% B (3.3–4.4 min); 0–85% A/100–15% B (4.4–4.5 min); 85% A/15% B (4.5–6 min). The column was set at 40 °C and the injection volume was 10 μL. For the mass spectrometric conditions, the following parameters were used in positive ionization mode: capillarity voltage 3.5 kV, extractor voltage 3 V, cone voltage 35 V, Rf lens 0.1 V. The source temperature was set at 120 °C and the desolation temperature at 450 °C. The desolvation gas flow was fixed at 1000 L/h and cone gas flow at 50 L/h. […] The limit of quantification, linearity, matrix effects and specificity of the method developed for each compound were validated based on the European Medicines Agency (EMA) guidelines for bioanalytical method validation and the study from Kislyuk et al..
For the quantification of the metabolites E-CBZ and HPPH, the samples processed were the microsomal incubation reactions (see Section 4.3.2), the zebrafish culture and stock medium (4.2.1) and the zebrafish embryos/larvae extracts (see Section 4.2.3). Samples from the different experiments were also prepared, as for the parent compounds, to reach a final percentage of 30% ACN and a concentration of 0.39 µM of the IS, LAMO.

[3] = CBZ/E-CBZ experiment, 250 µM, 120 hpf, affected/evaluated, replicates 1 and 2
[4] = PHE/HPPH experiment, 250 µM, 120 hpf, affected/evaluated, replicates 1 and 2

For `CC1(C)OC(=O)NC1=O` [DMO, dimethadione], the “Teratogenicity on zebrafish development” value (zebrafish embryos) is listed as “induced teratogenicity”.

For `NC(=O)N1c2ccccc2C2OC2c2ccccc21` (stereo not drawn) [E-CBZ, carbamazepine-10,11-epoxide], the “Significant effect on embryo/larva development after exposure to the metabolite” value ([1]; 250 µM) was “delay in swim bladder inflation at 120 hpf for one replicate”, the “Morphological differences compared with the controls before 48 hpf” value ([1]; CBZ 31.25, 85, 250 µM, E-CBZ 250 µM) was “No statistically significant differences” and the “Deviation Tail Curve” value [1, 3] was 1/20. For the same molecule, the “Malformation Head Deviation Eye” value [1, 3] was 1/20, the “Malformation Head Deviation Mouth” value [1, 3] was 1/20 and the “Oedema Head” value [1, 3] was 1/20. For the same molecule, the “Oedema Pericardium” value [1, 3] was 1/20, the “Oedema Yolk” value [1, 3] was 1/20 and the “Swim Bladder Not Inflated” value [1, 3] was 3/20 and 6/20 *. For the same molecule, the “Teratogenicity in zebrafish (conclusion from morphological and analytical assessment)” value [1] was “not teratogenic in zebrafish”, the “Quantified concentration above the nominal concentration” value ([2]; 250 µM, culture medium) was “around 20%” and the “Percentage of quantified compound concentration relatively to the nominal concentration” value ([2]; CBZ–E-CBZ, Culture medium, nominal 250 µM) was 117.3 ± 9.3%. The “Uptake by embryos and larvae (quantified in homogenate extracts)” value (zebrafish embryos/larvae) was “Uptake of the compounds was also observed” and the “Findings after incubation of zebrafish embryos” value (zebrafish embryos; 2.6 mg/L (10.3 µM), 3 to 144 hpf) was “lack of findings”.

For `O=C1NC(=O)C(c2ccccc2)(c2ccc(O)cc2)N1` (stereo not drawn) [HPPH, 5-(4-hydroxyphenyl)-5-phenylhydantoin], the “Significant effect on embryo/larva development after exposure to the metabolite” value ([1]; 250 µM) was “no significant effect”, the “Deviation Tail Curve” value [1, 4] was 2/20 and the “Deviation Tail Tissue Deviation” value [1, 4] was 1/20. The “Malformation Head Deviation Eye” value [1, 4] was 2/20, the “Swim Bladder Not Inflated” value [1, 4] was 5/20 and 6/20 and the “Teratogenicity in zebrafish (conclusion from morphological and analytical assessment)” value [1] was “not teratogenic in zebrafish”. For the same molecule, the “Uptake by embryos and larvae (quantified in homogenate extracts)” value (zebrafish embryos/larvae) was “Uptake of the compounds was also observed” and the “Internal concentration, times higher at 24 hpf than at 120 hpf” value (zebrafish embryos/larvae; all concentrations) was about 5 times.

In the case of `CN1C(=O)OC(C)(C)C1=O` [TMO, trimethadione], the “Teratogenicity on zebrafish development” value (zebrafish embryos) is given as “induced teratogenicity”.
